Among the data in ChEMBL document CHEMBL5291721, “A preclinical secondary pharmacology resource illuminates target-adverse drug reaction associations of marketed drugs” (Nat Commun, 2023) are AC50 values, retold here.

Each structure is given as a SMILES string.

Assay [1] concerns the target Sodium-dependent dopamine transporter (Homo sapiens, UniProt Q01959).
The target of assay [2] is T1, Cholecystokinin receptor type A (Homo sapiens, UniProt P32238).
T1 sequence (P32238 whole entry): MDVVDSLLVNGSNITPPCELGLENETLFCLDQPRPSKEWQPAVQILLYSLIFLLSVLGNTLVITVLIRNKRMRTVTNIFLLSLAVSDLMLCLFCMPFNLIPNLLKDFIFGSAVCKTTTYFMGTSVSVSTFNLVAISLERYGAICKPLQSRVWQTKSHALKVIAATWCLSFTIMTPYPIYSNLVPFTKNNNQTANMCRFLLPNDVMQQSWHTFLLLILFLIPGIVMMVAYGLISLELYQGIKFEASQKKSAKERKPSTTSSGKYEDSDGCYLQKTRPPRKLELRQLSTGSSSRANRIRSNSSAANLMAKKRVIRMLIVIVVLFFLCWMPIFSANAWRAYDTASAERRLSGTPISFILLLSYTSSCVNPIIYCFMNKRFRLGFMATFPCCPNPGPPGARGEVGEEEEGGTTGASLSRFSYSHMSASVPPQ

Another assay concerns the target Adenosine receptor A2a (Homo sapiens, UniProt P29274).
The target of a further assay is D(3) dopamine receptor (Homo sapiens, UniProt P35462).
D(3) dopamine receptor, sequence (P35462 whole entry): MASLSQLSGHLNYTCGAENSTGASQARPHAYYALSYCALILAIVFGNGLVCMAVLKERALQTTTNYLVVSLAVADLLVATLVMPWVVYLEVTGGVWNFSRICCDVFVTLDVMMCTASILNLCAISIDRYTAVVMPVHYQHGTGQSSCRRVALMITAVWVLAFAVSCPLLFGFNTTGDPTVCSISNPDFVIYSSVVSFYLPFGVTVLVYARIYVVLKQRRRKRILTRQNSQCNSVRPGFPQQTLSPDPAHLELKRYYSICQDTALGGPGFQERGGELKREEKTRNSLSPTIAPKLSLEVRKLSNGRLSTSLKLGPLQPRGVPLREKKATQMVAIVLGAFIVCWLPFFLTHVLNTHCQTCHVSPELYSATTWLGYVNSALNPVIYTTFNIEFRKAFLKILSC
Assay [3] addresses T2, 5-hydroxytryptamine receptor 3A (Homo sapiens, UniProt P46098).
T2 sequence (P46098 whole entry): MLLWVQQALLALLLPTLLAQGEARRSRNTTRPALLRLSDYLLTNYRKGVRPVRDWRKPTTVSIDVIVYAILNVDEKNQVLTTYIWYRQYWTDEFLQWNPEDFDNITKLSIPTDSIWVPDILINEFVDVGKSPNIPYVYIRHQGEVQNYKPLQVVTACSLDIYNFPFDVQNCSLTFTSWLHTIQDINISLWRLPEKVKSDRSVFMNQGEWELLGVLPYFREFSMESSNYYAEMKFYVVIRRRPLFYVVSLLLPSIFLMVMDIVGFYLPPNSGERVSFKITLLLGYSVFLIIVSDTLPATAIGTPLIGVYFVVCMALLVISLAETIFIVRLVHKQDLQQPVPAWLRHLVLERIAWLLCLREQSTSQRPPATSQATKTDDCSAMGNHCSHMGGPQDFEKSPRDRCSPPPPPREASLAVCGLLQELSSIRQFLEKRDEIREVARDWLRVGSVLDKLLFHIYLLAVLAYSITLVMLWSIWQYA
The format is functional.

Assay [4] concerns the target Glutamate receptor ionotropic, NMDA 1 (Rattus norvegicus, UniProt P35439).
In assay [5] the target is T3, Amine oxidase [flavin-containing] A (Homo sapiens, UniProt P21397).
T3 sequence (P21397 whole entry): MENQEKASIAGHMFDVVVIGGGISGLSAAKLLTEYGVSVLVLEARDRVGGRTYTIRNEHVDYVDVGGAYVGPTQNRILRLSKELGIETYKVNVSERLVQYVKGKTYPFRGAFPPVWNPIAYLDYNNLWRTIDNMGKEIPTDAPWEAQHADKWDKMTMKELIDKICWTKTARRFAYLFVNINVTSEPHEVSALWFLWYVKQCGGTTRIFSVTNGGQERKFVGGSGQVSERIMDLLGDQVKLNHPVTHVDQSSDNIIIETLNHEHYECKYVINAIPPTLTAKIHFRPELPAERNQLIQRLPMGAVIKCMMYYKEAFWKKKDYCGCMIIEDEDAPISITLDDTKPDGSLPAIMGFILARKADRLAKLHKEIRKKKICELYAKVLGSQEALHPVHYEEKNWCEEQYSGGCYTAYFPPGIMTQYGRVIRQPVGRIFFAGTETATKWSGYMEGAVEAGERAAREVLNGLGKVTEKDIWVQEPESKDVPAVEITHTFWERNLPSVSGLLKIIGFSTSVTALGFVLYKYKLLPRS
The class given is functional.

For assay [6], the target named is T4, Alpha-2A adrenergic receptor (Homo sapiens, UniProt P08913).
T4 sequence (P08913 whole entry): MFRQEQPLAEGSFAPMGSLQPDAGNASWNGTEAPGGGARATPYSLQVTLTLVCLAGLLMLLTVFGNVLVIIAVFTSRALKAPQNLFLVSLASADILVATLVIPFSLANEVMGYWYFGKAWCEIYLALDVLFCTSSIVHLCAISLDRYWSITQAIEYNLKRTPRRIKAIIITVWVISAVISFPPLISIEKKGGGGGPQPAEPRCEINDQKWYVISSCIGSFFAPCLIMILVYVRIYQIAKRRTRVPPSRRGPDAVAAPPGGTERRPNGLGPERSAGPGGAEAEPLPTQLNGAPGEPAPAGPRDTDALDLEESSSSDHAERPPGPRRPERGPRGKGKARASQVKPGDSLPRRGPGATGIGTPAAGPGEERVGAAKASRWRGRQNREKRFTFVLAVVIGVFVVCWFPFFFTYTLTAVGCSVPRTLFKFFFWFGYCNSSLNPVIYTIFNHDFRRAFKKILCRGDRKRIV
The format is functional, cell-based.

Assay [7] deals with T5, Cannabinoid receptor 1 (Homo sapiens, UniProt P21554). The format is functional, cell-based.
T5 sequence (P21554 whole entry): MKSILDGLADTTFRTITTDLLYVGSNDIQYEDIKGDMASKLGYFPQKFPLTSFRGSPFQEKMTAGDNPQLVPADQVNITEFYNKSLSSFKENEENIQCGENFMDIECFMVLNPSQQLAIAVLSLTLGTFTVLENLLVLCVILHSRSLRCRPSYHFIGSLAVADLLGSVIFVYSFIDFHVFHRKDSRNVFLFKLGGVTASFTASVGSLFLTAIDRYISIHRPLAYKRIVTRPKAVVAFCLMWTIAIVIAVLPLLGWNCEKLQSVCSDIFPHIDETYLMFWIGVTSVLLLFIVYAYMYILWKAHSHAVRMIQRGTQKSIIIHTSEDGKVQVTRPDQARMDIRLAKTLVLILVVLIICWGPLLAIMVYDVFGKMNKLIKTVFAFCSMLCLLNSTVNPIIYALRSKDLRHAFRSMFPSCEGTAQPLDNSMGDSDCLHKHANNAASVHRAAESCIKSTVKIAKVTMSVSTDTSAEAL
The target in assay [8] is T6, Muscarinic acetylcholine receptor M1 (Homo sapiens, UniProt P11229).
T6 sequence (P11229 whole entry): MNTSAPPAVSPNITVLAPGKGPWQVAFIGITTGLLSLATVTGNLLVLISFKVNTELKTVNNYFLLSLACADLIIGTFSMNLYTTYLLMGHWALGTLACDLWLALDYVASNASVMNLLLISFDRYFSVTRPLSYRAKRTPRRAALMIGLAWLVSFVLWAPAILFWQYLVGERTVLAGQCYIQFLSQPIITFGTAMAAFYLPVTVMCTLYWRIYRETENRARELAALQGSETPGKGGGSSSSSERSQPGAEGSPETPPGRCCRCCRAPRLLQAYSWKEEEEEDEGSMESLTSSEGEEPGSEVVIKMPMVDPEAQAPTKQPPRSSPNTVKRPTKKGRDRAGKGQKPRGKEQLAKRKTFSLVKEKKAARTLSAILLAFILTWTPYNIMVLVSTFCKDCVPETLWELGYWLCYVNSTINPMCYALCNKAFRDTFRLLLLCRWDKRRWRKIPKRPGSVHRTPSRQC
The class given is functional.

For assay [9], the target named is T5, Cannabinoid receptor 1. The format is functional, cell-based. The source holds these as a separate data set.
Also: assay procedure not described here.

Sodium-dependent dopamine transporter, sequence (Q01959 whole entry): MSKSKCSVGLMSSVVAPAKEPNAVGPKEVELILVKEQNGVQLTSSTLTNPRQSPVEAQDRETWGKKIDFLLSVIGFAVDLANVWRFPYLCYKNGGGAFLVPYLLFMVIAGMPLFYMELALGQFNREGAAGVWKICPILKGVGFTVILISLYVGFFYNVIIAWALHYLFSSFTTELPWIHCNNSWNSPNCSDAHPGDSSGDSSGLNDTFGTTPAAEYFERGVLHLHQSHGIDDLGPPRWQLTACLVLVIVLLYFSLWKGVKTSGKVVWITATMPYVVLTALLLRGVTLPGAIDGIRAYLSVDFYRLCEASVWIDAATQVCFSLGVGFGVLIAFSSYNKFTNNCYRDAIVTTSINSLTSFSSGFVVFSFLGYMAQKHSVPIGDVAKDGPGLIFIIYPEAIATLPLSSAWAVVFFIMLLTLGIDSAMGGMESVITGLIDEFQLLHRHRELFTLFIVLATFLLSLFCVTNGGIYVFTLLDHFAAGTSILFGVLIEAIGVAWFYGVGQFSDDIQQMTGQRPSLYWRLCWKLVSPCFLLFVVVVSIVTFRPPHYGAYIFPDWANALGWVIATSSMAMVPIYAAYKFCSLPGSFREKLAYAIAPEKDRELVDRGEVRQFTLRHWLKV
Adenosine receptor A2a, sequence (P29274 whole entry): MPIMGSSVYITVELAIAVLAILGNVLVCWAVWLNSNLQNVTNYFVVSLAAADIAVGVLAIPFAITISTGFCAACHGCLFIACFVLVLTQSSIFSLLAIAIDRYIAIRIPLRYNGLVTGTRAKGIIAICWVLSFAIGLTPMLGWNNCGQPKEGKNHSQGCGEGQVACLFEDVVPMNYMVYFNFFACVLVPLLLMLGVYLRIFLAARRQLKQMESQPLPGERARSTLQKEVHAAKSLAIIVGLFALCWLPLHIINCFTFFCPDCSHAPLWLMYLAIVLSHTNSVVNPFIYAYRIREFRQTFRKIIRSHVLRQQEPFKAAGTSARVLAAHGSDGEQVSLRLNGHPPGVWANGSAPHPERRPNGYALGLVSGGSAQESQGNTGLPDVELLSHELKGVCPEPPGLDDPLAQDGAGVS

Turning to `CCC(CC)(CC(=O)Nc1cccc(/C=C/c2nc(C3CCC3)cs2)c1)C(=O)O`, the AC50 (in assay [1]; in assay [2]; at Adenosine receptor A2a) was > 30 µM in each case.
Compound `CC(=O)c1ccc2c(c1)N(CCCN(C)C)c1ccccc1S2` [ACEPROMAZINE] registered an AC50 on D(3) dopamine receptor of 0.013 µM.
On to `CCCC1O[C@@H]2C[C@H]3[C@@H]4CCC5=CC(=O)C=C[C@]5(C)[C@H]4[C@@H](O)C[C@]3(C)[C@]2(C(=O)CO)O1` (stereo not given in full) [BUDESONIDE], for which the AC50 in [3] is > 30 µM; in assay [4] it was > 10 µM; in assay [5], > 10 µM; in assay [1], > 10 µM; in assay [6], > 10 µM; on D(3) dopamine receptor, > 30 µM. For the same compound, the AC50 (in assay [2]; on Adenosine receptor A2a) was > 10 µM each time.
With `C=CCN1C[C@H](C(=O)N(CCCN(C)C)C(=O)NCC)C[C@@H]2c3cccc4[nH]cc(c34)C[C@H]21` [CABERGOLINE], the AC50 at Cannabinoid receptor 1 [7] was > 30 µM; in assay [3], > 30 µM; in assay [4] it was > 10 µM; in assay [5] it was > 10 µM; in assay [8], > 10 µM; on Cannabinoid receptor 1 [9] it was > 30 µM. The half-maximal activity concentration (AC50) was 5.4 µM in assay [1], 0.0076 µM at D(3) dopamine receptor, > 10 µM in [2] and > 10 µM at Adenosine receptor A2a.
Take `CN1CCN(C2=Nc3ccccc3Sc3ccc(Cl)cc32)CC1` [CLOTHIAPINE]: the AC50 was 9 µM in [3]; > 30 µM in assay [4]; > 30 µM in assay [5]; 1.2 µM in [8]; > 30 µM on Cannabinoid receptor 1 [9]; > 30 µM in assay [6]. This compound yielded an AC50 at D(3) dopamine receptor of 0.35 µM.
As for `CCOc1ccc(Cc2cc([C@@H]3O[C@H](CO)[C@@H](O)[C@H](O)[C@H]3O)ccc2Cl)cc1` [DAPAGLIFLOZIN], the AC50 in assay [3] was > 30 µM; in [4], > 10 µM; in [5], > 10 µM; in [8], > 10 µM; in assay [1], > 30 µM; at D(3) dopamine receptor, > 30 µM. Further, the concentration at half-maximal activity (AC50) (in assay [2]; on Adenosine receptor A2a) was > 30 µM in each case.
Turning to `CN(C)CC/C=C1\c2ccccc2CSc2ccccc21` [DOTHIEPIN], the AC50 on Cannabinoid receptor 1 [7] was > 30 µM; in assay [3], > 30 µM; in assay [4], > 30 µM; on Cannabinoid receptor 1 [9] it was > 30 µM; in [1] it was 20 µM; in assay [6], 29 µM. The AC50 on D(3) dopamine receptor was 3 µM; in assay [2], > 30 µM; at Adenosine receptor A2a, > 30 µM.
Take `CC[C@H]1CN2CCc3cc(OC)c(OC)cc3[C@@H]2C[C@@H]1C[C@H]1NCCc2cc(OC)c(OC)cc21` [EMETINE]: the concentration at half-maximal activity (AC50) (at Cannabinoid receptor 1 [7]; in [3]; in assay [4]; in assay [5]; at Cannabinoid receptor 1 [9]; in [1]) was > 30 µM in each case. The concentration at half-maximal activity (AC50) in [6] was 1.2 µM; in [2], > 30 µM; at Adenosine receptor A2a it was > 30 µM.
Regarding `O=[N+]([O-])O[C@@H]1CO[C@H]2[C@@H]1OC[C@@H]2O` [ISOSORBIDE MONONITRATE], the AC50 in [3] was > 30 µM; in assay [4], > 10 µM; in [5], > 10 µM; in assay [8] it was > 10 µM; in [1], > 10 µM; in assay [6], > 10 µM. Further, the AC50 is > 10 µM at D(3) dopamine receptor, > 30 µM in [2] and > 30 µM at Adenosine receptor A2a.
For the compound `Cc1cc(C)c(NC(=O)CN(CC(=O)O)CC(=O)O)c(C)c1Br` [MEBROFENIN], the AC50 (at Cannabinoid receptor 1 [7]; in assay [3]; in assay [4]; in [5]; in [8]; at Cannabinoid receptor 1 [9]) was > 30 µM throughout. Moreover, the AC50 was > 30 µM in assay [6] and 22 µM at D(3) dopamine receptor.
For the compound `COc1cc2nc(N3CCN(C(=O)c4ccco4)CC3)nc(N)c2cc1OC` [PRAZOSIN], the concentration at half-maximal activity (AC50) at Cannabinoid receptor 1 [7] was > 30 µM; in assay [3] it was > 10 µM; in [4] it was > 10 µM; in [5], > 10 µM; on Cannabinoid receptor 1 [9], > 30 µM; in assay [1], > 10 µM. For the same compound, the AC50 (at D(3) dopamine receptor; in assay [2]; at Adenosine receptor A2a) was > 30 µM in each case.
Turning to `O=[N+]([O-])c1cn2c(n1)OC[C@@H](OCc1ccc(OC(F)(F)F)cc1)C2` [PRETOMANID], the AC50 is > 10 µM in assay [3]; > 10 µM in assay [4]; > 10 µM in assay [8]; > 10 µM in assay [1]; > 10 µM at D(3) dopamine receptor; > 30 µM in [2]. In addition, the concentration at half-maximal activity (AC50) on Adenosine receptor A2a is > 30 µM.
In the case of `Cc1oc(=O)oc1CN1CCN(c2cc3c(cc2F)c(=O)c(C(=O)O)c2n3C(C)S2)CC1` (stereo not given) [PRULIFLOXACIN], the concentration at half-maximal activity (AC50) (at Cannabinoid receptor 1 [7]; in assay [3]; in assay [4]; in assay [5]; in assay [8]; at Cannabinoid receptor 1 [9]) was > 30 µM each time. Moreover, the AC50 (in assay [6]; at D(3) dopamine receptor) was > 30 µM in each case.
For `CCCCCNC(=N)N/N=C/c1c[nH]c2ccc(OC)cc12` [TEGASEROD], the half-maximal activity concentration (AC50) in [3] is > 30 µM; in assay [4], 16 µM; in assay [5] it was > 30 µM; in assay [8], > 30 µM; in assay [1] it was 6.78 µM; in assay [6], 5.65 µM. For the same compound, the half-maximal activity concentration (AC50) on D(3) dopamine receptor is 3.5 µM; in assay [2], > 30 µM; at Adenosine receptor A2a it was > 30 µM.
Take `CN(C)CCc1c[nH]c2ccc(C[C@H]3COC(=O)N3)cc12` [ZOLMITRIPTAN]: the concentration at half-maximal activity (AC50) (in assay [3]; in assay [4]; in [5]; in [8]; at Cannabinoid receptor 1 [9]; in assay [1]) was > 30 µM throughout. In addition, the AC50 (in assay [6]; on D(3) dopamine receptor; in assay [2]; at Adenosine receptor A2a) was > 30 µM in each case.

In general, AC50 refers to the concentration at which the activity in the assay is half-maximal.
